Experimental data: US7071195B2, “Amine and amide derivatives as ligands for the neuropeptide Y Y5 receptor useful in the treatment of obesity and other disorders” (Ortho-McNeil Pharmaceutical, Inc., priority 1999, dated 2006)
Structures can show the parent of a compound that is named as a salt.

Molecular target: T1, human neuropeptide Y5 receptor (Homo sapiens, UniProt Q15761)
T1 construct: expressed in transfected cells; host or cells: HEK-293 (stably transfected, G-418 selected); membranes
T1 sequence (Q15761 1-445): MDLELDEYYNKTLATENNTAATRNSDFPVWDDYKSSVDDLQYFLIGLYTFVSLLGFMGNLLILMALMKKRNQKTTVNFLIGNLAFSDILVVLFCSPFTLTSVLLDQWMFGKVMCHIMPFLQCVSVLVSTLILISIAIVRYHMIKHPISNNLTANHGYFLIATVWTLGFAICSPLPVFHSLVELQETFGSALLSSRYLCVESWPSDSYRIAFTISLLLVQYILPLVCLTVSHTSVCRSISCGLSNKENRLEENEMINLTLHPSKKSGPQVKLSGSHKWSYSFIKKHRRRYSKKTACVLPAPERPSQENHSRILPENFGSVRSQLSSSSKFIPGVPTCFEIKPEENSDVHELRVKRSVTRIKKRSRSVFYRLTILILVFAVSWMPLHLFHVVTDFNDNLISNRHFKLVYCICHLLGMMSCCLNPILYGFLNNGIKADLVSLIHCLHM
Assay: NPY5 HTS centrifugation assay: competition with 125I-PYY for binding to membranes of NPY5-transfected HEK293 cells
Conditions: 80 pM 125I-PYY, 1 hr room temperature; for inhibition at 0.3 µM / % Inh @ 300 nM (% Inhibition of 125I-PYY Binding): 300 nM compound; for inhibition at 0.3 µM: read-out: % Inh @ 300 nM (% Inhibition of 125I-PYY Binding); for inhibition at 3 µM / % Inh @ 3 uM (% Inhibition of 125I-PYY Binding): 3 uM compound; for inhibition at 3 µM: read-out: % Inh @ 3 uM (% Inhibition of 125I-PYY Binding)
Experimental: The compounds described in this invention were evaluated for binding to the human neuropeptide Y5 receptor.
Stably transfected cells served as the source for the membranes for the NPY5 receptor binding assay.
NPY5-transfected HEK293 cells were grown to confluence in 150 cm^2 culture dishes. […] Cells were then incubated in phosphate-buffered saline without Calcium and without Magnesium, supplemented with 2 mM EDTA. Cells were incubated for 10 minutes at room temperature and the cells were collected by repetitive pipeting. Cells were formed into pellets and then frozen at −80 until needed. Frozen pellets were homogenized with a polytron at full speed for 12 seconds in a homogenization buffer (20 mM Tris HCl, 5 mM EDTA, pH 7.4). Homogenates were centrifuged for 5 minutes at 4 C at 200 g. Supernatants were transferred to corex tubes and centrifuged for 25 minutes at 28,000 g. Pellets were re-suspended in Binding (20 mM HEPES, 10 mM NaCl, 0.22 mM KH2PO4, 1.3 mM CaCl2, 0.8 mM MgSO4, pH 7.4). Membranes were kept on ice until use.
Compounds to be tested were prepared as 10× stocks in binding buffer and added first to assay tubes (RIA vials, Sarstedt). […] To each tube is added 100 μL of membranes and the mixture is agitated by pipeting 2 times. Samples are incubated for 1 hr at room temperature. Aluminum cast plates (Sarstedt) containing the vials are then centrifuged 10 minutes at 3200 rpm in a Sorvall RT6000. Supernatant is then aspirated. To each vial 400 μL PBS is added and this is then aspirated again. Vials are then put in carrier polypropylene 12×75 tube and counted in gamma counter (Packard). Non-specific binding is determined in the presence of 300 nM NPY. […] These operations are known to those skilled in the art.

Row | SMILES | inhibition at 0.3 µM [%] | inhibition at 3 µM [%] | % Inh @ 300 nM (% Inhibition of 125I-PYY Binding) [%] | % Inh @ 3 uM (% Inhibition of 125I-PYY Binding) [%]
1 | COc1ccc2c(c1)CCC(NC(=O)[C@H](CCCCNS(=O)(=O)c1ccccc1F)NC(C)=O)C2Cc1cccnc1 (stereo partly drawn) [Compound 10, (2S)-2-(Acetylamino)-6-[(2-fluorophenylsulfonyl)amino]-N-[cis-1,2,3,4-tetrahydro-6-methoxy-1-(3-pyridinylmethyl)-2-naphthenyl]hexanamide bis-hydrochloride] | 60 | 96 | – | –
2 | CC(=O)NC(CCCCNS(=O)(=O)c1ccccc1)C(=O)NC1CCc2ccccc2C1Cc1cccnc1 (mixture of isomers) [Compound 37] | – | – | 89 | 102
3 | O=C(CN1CCC(NS(=O)(=O)c2ccccc2)CC1)NC1CCc2cc(F)ccc2C1Cc1cccnc1 (centres unmarked) [Compound 48] | – | – | 97 | 103
4 | O=C(CN1CCC(n2c(=O)[nH]c3ccccc32)CC1)NC1CCc2ccccc2C1Cc1cccnc1 (centres unmarked) [Compound 31] | – | – | 91 | 100
5 | CC(C)(C)OC(=O)NC1CCN(CC(=O)NC2CCc3cc(F)ccc3C2Cc2cccnc2)CC1 (centres unmarked) [Compound 54] | – | – | 99 | 100
6 | CCNC(CCCCNS(=O)(=O)c1ccccc1)CNC1CCc2ccccc2C1Cc1cccnc1 (mixture of isomers) [Compound 68] | – | – | 109 | 108
7 | COc1ccc2c(c1)CCC(NC(=O)CN1CCC(n3c(=O)[nH]c4ccccc43)CC1)C2Cc1ccsc1 (centres unmarked) [Compound 61] | – | – | 66 | 87
8 | O=C(Nc1ccccc1)NC(CCCCNS(=O)(=O)c1ccccc1)C(=O)NC1CCc2ccccc2C1Cc1cccnc1 (mixture of isomers) [Compound 72] | – | – | 41 | 73
9 | CN(C)C(CCCCNS(=O)(=O)c1ccccc1)C(=O)NC1CCc2ccccc2C1Cc1cccnc1 (single isomer, unassigned) [Compound 43a] | – | – | 84 | 93
10 | O=S(=O)(NC[C@H]1CC[C@H](CNCC(Cc2cccnc2)c2ccc(F)cc2)CC1)c1ccccc1F (some centres unmarked) [Compound 27] | 105 | 110 | – | –
11 | O=C(CN1CCC(NC(=O)c2ccccc2)CC1)NC1CCc2cc(F)ccc2C1Cc1cccnc1 (centres unmarked) [Compound 44] | – | – | 93 | 98
12 | NC(CCCCNS(=O)(=O)c1ccccc1)CNC1CCc2ccccc2C1Cc1cccnc1 (mixture of isomers) [Compound 65] | – | – | 79 | 98
13 | COc1ccc2c(c1)CC[C@@H](NC(=O)CN1CCC(n3c(=O)[nH]c4ccccc43)CC1)[C@@H]2Cc1cccnc1 (relative stereo) [Compound 20, 4-(2,3-Dihydro-2-oxo-1H-benzimidazol-1-yl)-N-[trans-1,2,3,4-tetrahydro-6-methoxy-1-(3-pyridinylmethyl)-2-naphthalenyl]-1-piperidineacetamide bis-hydrochloride] | 88 | 96 | – | –
14 | O=C(CN1CCC(n2c(=O)[nH]c3ccccc32)CC1)NC1CCc2cc(O)ccc2C1 (centres unmarked) [Compound 83] | – | – | 72 | 92
15 | CN(C)C(CCCCNS(=O)(=O)c1ccccc1)C(=O)NC1CCc2ccccc2C1Cc1cccnc1 (single isomer, unassigned) [Compound 43b] | – | – | 62 | 86
16 | O=C(CN1CCC(n2c(=O)[nH]c3ccccc32)CC1)NCC(Cc1cccnc1)c1ccc(O)cc1 (centres unmarked) [Compound 87] | – | – | 97 | 96

Row | SMILES | inhibition at 0.3 µM [%] | inhibition at 3 µM [%] | % Inh @ 300 nM (% Inhibition of 125I-PYY Binding) [%] | % Inh @ 3 uM (% Inhibition of 125I-PYY Binding) [%]
17 | O=C(CN1CCC(n2c(=O)[nH]c3ccccc32)CC1)N[C@H]1CCc2cc(O)ccc2[C@H]1Cc1cccnc1 (relative stereo) [Compound 23, 4-(2,3-Dihydro-2-oxo-1H-benzimidazol-1-yl)-N-[cis-1,2,3,4-tetrahydro-6-hydroxy-1-(3-pyridinylmethyl)-2-naphthalenyl]-1-piperidineacetamide bis-hydrochloride] | 96 | 100 | – | –
18 | O=C(Cc1ccccc1)NC1CCN(CC(=O)NC2CCc3cc(F)ccc3C2Cc2cccnc2)CC1 (centres unmarked) [Compound 47] | – | – | 91 | 98
19 | CCNC(=O)NC(CCCCNS(=O)(=O)c1ccccc1)C(=O)NC1CCc2ccccc2C1Cc1cccnc1 (mixture of isomers) [Compound 40] | – | – | 21 | 92
20 | NC(=O)NC(CCCCNS(=O)(=O)c1ccccc1)C(=O)NC1CCc2ccccc2C1Cc1cccnc1 (mixture of isomers) [Compound 41] | – | – | 54 | 94
21 | O=C(NCC(Cc1cccnc1)c1ccc(F)cc1)[C@H]1CC[C@H](CNS(=O)(=O)c2ccccc2F)CC1 (relative stereo) [Compound 26, trans-N-[2-(4-fluorophenyl)-3-(3-pyridinyl)propyl]-4-[((2-fluorophenylsulfonyl)amino)methyl]-1-cyclohexanamide hydrochloride] | 108 | 110 | – | –
22 | NC(CCCCNS(=O)(=O)c1ccccc1)CNC1CCc2ccccc2C1Cc1cccnc1 (single isomer, unassigned) [Compound 66] | – | – | 98 | 102
23 | CC(C)(C)OC(=O)NC1CCN(CC(=O)NC2CCc3cc(F)ccc3C2Cc2cccnc2)C1 (centres unmarked) [Compound 55] | – | – | 96 | 106
24 | NC(CCCCNS(=O)(=O)c1ccccc1)C(=O)NC1CCc2ccccc2C1Cc1cccnc1 (mixture of isomers) [Compound 33] | – | – | 52 | 96
25 | CC(=O)NC(CCCCNS(=O)(=O)c1ccccc1)C(=O)NC1CCc2ccccc2C1Cc1cccnc1 (single isomer, unassigned) [Compound 38b] | – | – | 89 | 101
26 | CC(C)(C)NC(=O)NC1CCN(CC(=O)NC2CCc3cc(F)ccc3C2Cc2cccnc2)CC1 (centres unmarked) [Compound 53] | – | – | 84 | 92
27 | O=C(CN1CCC2(CC1)C(=O)NCN2c1ccccc1)N[C@H]1CCc2ccccc2[C@H]1Cc1cccnc1 (relative stereo) [Compound 22, 4-Oxo-1-phenyl-N-[cis-1,2,3,4-tetrahydro-1-(3-pyridinylmethyl)-2-naphthalenyl]-1,3,8-triazaspiro[4.5]decane-8-acetamide bis-hydrochloride] | 32 | 70 | – | –
28 | COc1ccc(C(CNC(=O)CN2CCC(n3c(=O)[nH]c4ccccc43)CC2)Cc2cccnc2)cc1 (centres unmarked) [Compound 86] | – | – | 88 | 91
29 | COc1ccc2c(c1)CCC(NC(=O)CN1CCC(n3c(=O)[nH]c4ccccc43)CC1)C2Cc1cnc[nH]1 (centres unmarked) [Compound 73] | – | – | 32 | 63
30 | CC(=O)C1(c2ccccc2)CCN(CC(=O)N[C@H]2CCc3ccccc3[C@H]2Cc2cccnc2)CC1 (relative stereo) [Compound 21, 4-Acetyl-4-phenyl-N-[cis-1,2,3,4-tetrahydro-1-(3-pyridinylmethyl)-2-naphthalenyl]-1-piperidineacetamide bis-hydrochloride] | 83 | 98 | – | –
31 | O=C(CN1CCC(NS(=O)(=O)c2ccccc2)C1)NC1CCc2cc(F)ccc2C1Cc1cccnc1 (mixture of isomers) [Compound 59] | – | – | 90 | 93
